The values that follow come from patent US5445941A, “Method for screening anti-osteoporosis agents” (Eli Lilly and Company, priority 1993, dated 1995).

“Also recorded” adds a separate entry of the source. Structures can show the parent of a compound that is named as a salt. Where two headings read alike, the source gives them in different places.

Series [1] has as its system TGFβ-3 promoter. Briefly: Dose response of TGFβ-3 promoter (pB-301) CAT induction in MG63 cells with pRSVER. The following applies: for CAT activity: 24 h, vehicle 0.85. The procedure:
For each group of twelve cultures, the particular estrogen or antiestrogen compound was tested in replicate cultures at […], varying in tenfold increments from 10^-9 M to 10^-5 M, as well as one set of replicate cultures treated with vehicle only (for a total of twelve cultures per experimental treatment). Hormones were dissolved in ethanol and applied to the cultures in media as described above. The four estrogens and antiestrogens tested were:
a. 17β-estradiol (Sigma Chemical Corp., St. Louis, Mo.);

The subject of series [2] is TGFβ-3 promoter. Briefly: Comparative induction of reporter gene from TGFβ-3 promoter (pB-301, pRSVER, MG63) by raloxifene and related compounds. Type of series: cell-based, human. Conditions: for reporter gene expression: 0 M 0.61; for induction of reporter gene expression (in words): MG63 cells. For orientation: Reporter assays use an easily measured gene product as a stand-in for the process of interest.

The test system of series [3] is uterotropic activity. The following applies: ovariectomized rats; cited from earlier work.
Series [4] has as its system estrogen responsive elements. Conditions: in vitro; cited from earlier work.
The subject of series [5] is TGFβ secretion by human fetal fibroblasts. The following applies: absence of estrogen receptor; cited from earlier work.
The conditions of series [6]: cited from earlier work; for bone density (in words): breast cancer patients.
The test system of series [7] is TGFβ-1 promoter. In words: CAT reporter expression, TGFβ-1 promoter (phTG12), MG63 cells cotransfected with pRSVER.
Description: (§1) Co-transfection experiments were performed in MG63 (human osteosarcoma) cells, using the ProFection Mammalian Transfection System (Promega). […] The cells were then refed with fresh 3:1 media containing 10% csFBS. Compounds to be evaluated for their ability to modulate reporter gene expression were added at the appropriate times and assayed as described below.
(§2) Cultures of MG63 cells were transiently co-transfected with pRSVER plasmid and either phTG12, pTGF-1, or pB2-499 using the ProFection system (Promega). For each transfected cell culture, DNA-containing calcium phosphate precipitates were added dropwise to each culture dish and mixed thoroughly in the media. The pH of the media was carefully maintained between pH 7.2 and pH 7.4. Transfected cell cultures were then incubated overnight in a 5% CO2 atmosphere at 37° C. For all cultures, the precipitate was removed after overnight incubation by aspirating the media from the culture dishes, followed by rinsing each dish twice with D-PBS. For each cotransfected cell line, the buffer was replaced with 10 ml fresh medium containing 10% csFBS and one of the following compositions:
(§3) a. 10 μl ethanol (hormone vehicle)=control;
(§4) b. 10 μl 17β-estradiol (Sigma) ("estradiol") at a concentration of 10^-4 M in ethanol;
(§5) d. 10 μl Tamoxifen (Sigma) at a concentration of 10^-4 M in ethanol.
(§6) After 24 h incubation with these hormonal preparations (or the vehicle control), cells were washed twice with D-PBS. The cells were then scraped from the culture dishes using a rubber policeman and 1 ml of D-PBS. Cells were collected by centrifugation at 8,000 rpm for 2 minutes in a tabletop centrifuge (MicroMax Model, IEC, Newark, N.Y.). The supernatant was removed and the cell pellets were resuspended in 150 μL of a 0.25M Tris-HCl solution (pH 7.8). Cells were lysed by three cycles of freezing in a dry ice/ethanol bath and thawing in a water bath at 37° C. water bath (for 3 minutes each cycle). Lysed cell preparations were centrifuged at 15,000 rpm for 5 minutes at 4° C. to remove cell debris. Supernatants containing the soluble cell lysate were transferred to a new set of tubes for assaying chloramphenicol acetyltransferase (CAT) activity.
Before performing CAT assays on such cell lysates, the protein content of each lysate was first determined using a commercially-available assay (BioRad Laboratories, Richmond, Calif.). An amount of each cell lysate containing 100 μg total protein was then mixed with CAT assay buffer (0.4M Tris-HCl (pH 7.8)/ 0.5 mM acetyl-CoA (Boehringer Mannheim)/ 0.1 μCi D-threo-(dichloroacetyl-1,2-[^14 C]-chloramphenicol) for 15 hours. After this incubation, reactions were stopped by vigorously extracting the reaction mixture with 900 μL ethyl acetate. The organic and aqueous phases were separated by brief centrifugation at 14,000 rpm for 1 minute, and approximately 800 μL of the organic phase was transferred to a new set of tubes. Ethyl acetate was evaporated to concentrate the CAT-catalyzed reaction products.
Acetylated and unacetylated chloramphenicol species were resolved by thin layer chromatography using a mixture of 95:5 (v/v) chloroform:methanol as the ascending buffer.
The test system of series [8] is TGFβ-3 promoter. In words: CAT reporter expression, TGFβ-3 promoter (pB-499), MG63 cells cotransfected with pRSVER.
Description: as §1, §2, §3, §4, §5, §6
(§7) Before performing CAT assays on such cell lysates, the protein content of each lysate was first determined using a commercially-available assay (BioRad Laboratories, Richmond, Calif.). […]
In series [9] the test system is TGFβ-2 promoter. In words: CAT reporter expression, TGFβ-2 promoter (pTGF-1), MG63 cells cotransfected with pRSVER.
Description: as §1, §2, §3, §4, §5, §6, §7
The subject of series [10] is TGFβ-1. Conditions: three months of treatment; cited from earlier work.
Series [11] concerns TGFβ-2 mRNA. The following applies: T-47D and MDA-MB-231; cited from earlier work.
The subject of series [12] is mesenchymal cells and epithelial cells; fibroblasts, macrophages and smooth muscle cells. The following applies: cited from earlier work.
The test system of series [13] is osteoblasts and osteoclasts. Conditions: cited from earlier work.
Series [14] has as its system human endometrial cancer cell line (Ishikawa). Conditions: cited from earlier work.
Series [15] relates to human endometrial cancer cell line (HEC-50). Conditions: cited from earlier work.
Series [16] relates to osteoblast enriched bone cell cultures. The following applies: relative to TGFβ-1; cited from earlier work.
Where [17] appears, read: Homo sapiens, MG-63, 24 h, read-out: Fold Ind.

Turning to `CCCCN(C)C(=O)CCCCCCCCCC[C@@H]1Cc2cc(O)ccc2[C@H]2CC[C@]3(C)[C@@H](O)CC[C@H]3[C@H]12` [ICI], the CAT activity in [1] (10^-5 M) was 6.5; in [1] (10^-6 M) it was 15.2; in series [1] (10^-7 M), 10.9; in series [1] (10^-8 M), 0.88; in series [1] (10^-9 M) it was 0.89. Further, in series [1] (Homo sapiens, MG-63, 24 h, read-out: ED50), the EC50 stood at 100 nM. In series [1] (MG63 cells), the “TGFβ-3 promoter activation (in words)” value is listed as “much less active at high concentrations (10^-5 M)”.
Take `O=C(c1ccc(O)cc1)c1sc2ccccc2c1-c1ccccc1` [LY81099, p-hydroxyphenyl 3-phenylbenzo[B]thien-2-yl ketone]: the reporter gene expression in series [2] (10^-5 M) is given as 2.3; in [2] (10^-6 M), 0.9; in [2] (10^-7 M), 0.7; in [2] (10^-8 M), 0.5; in series [2] (10^-9 M), 0.6. Besides, the “in vivo uterotropic activity (in words)” value in series [3] is “uterotropic”.
Consider `O=C(c1ccc(O)cc1)c1sc2ccc(O)cc2c1-c1ccccc1` [LY112676, (p-hydroxyphenyl) 5-hydroxy-3-phenylbenzo[B]thien-2-yl ketone], for which the reporter gene expression in [2] (10^-5 M) is on record as 3.8; in [2] (10^-6 M), 1.7; in [2] (10^-7 M) it was 0.5; in series [2] (10^-8 M), 0.6; in series [2] (10^-9 M) it was 0.6. For the same compound, the “in vivo uterotropic activity (in words)” value in series [3] was “uterotropic”.
Consider `O=C(c1ccc(OCCN2CCCC2)cc1)c1c(-c2ccc(O)cc2)sc2ccccc12` [LY113526, 2-(p-hydroxyphenyl)benzo[B]thien-3-YL p-[2-(1-pyrrolidinyl)ethoxy]phenyl ketone], for which the reporter gene expression in series [2] (10^-5 M) was found to be 2.1; in [2] (10^-6 M), 2.0; in series [2] (10^-7 M), 0.6; in [2] (10^-8 M), 0.7; in series [2] (10^-9 M), 0.7. In addition, the “in vivo uterotropic activity (in words)” value in [3] is given as “anti-uterotropic”.
Take `COc1ccc(C2=C(C(=O)c3ccc(OCCN4CCCC4)cc3)c3ccccc3CC2)cc1` [LY133314, [3,4-dihydro-2-(4-methoxyphenyl)-1-naphthanlenyl][4-[2-(1-pyrrolidinyl)ethoxy]phenyl]methanone, methanesulfonic acid salt]: the reporter gene expression in [2] (10^-5 M) is 1.0; in series [2] (10^-6 M), 6.6; in series [2] (10^-7 M), 3.1; in series [2] (10^-8 M) it was 0.7; in series [2] (10^-9 M) it was 0.7. Moreover, the “in vivo uterotropic activity (in words)” value in series [3] is “uterotropic”.
As to `O=C(c1ccc(OCCN2CCCCCC2)cc1)c1c(-c2ccc(O)cc2)sc2cc(O)ccc12` [LY139482, [4-[2-(hexahydro-1H-azepin-1-yl)ethoxy]phenyl][6-hydroxy-2-(4-hydroxyphenyl)benzo[B]thien-3-yl]methanone], the reporter gene expression was 2.0 in series [2] (10^-5 M); 2.5 in series [2] (10^-6 M); 2.7 in [2] (10^-7 M); 2.5 in [2] (10^-8 M); 0.8 in [2] (10^-9 M). For the same compound, in series [3], the “in vivo uterotropic activity (in words)” value is “anti-uterotropic”.
With `CC(C)(C)C(=O)Oc1ccc(-c2sc3cc(OC(=O)C(C)(C)C)ccc3c2C(=O)c2ccc(OCCN3CCCCC3)cc2)cc1` [LY177366, [6-(2,2-dimethyl-1-oxopropoxy)-2-[4-(2,2-dimethyl-1-oxopropoxy)phenyl]benzo[B]thien-3-yl][4-[2-1-piperidinyl)ethoxy]phenyl]methanone hydrochloride], the reporter gene expression in series [2] (10^-5 M) was 6.1; in series [2] (10^-6 M) it was 7.9; in [2] (10^-7 M), 10.2; in [2] (10^-8 M), 7.9; in series [2] (10^-9 M) it was 1.1. Also, the “induction of reporter gene expression (in words)” value in series [2] is “most potent inducer”. Further, the “in vivo uterotropic activity (in words)” value in series [3] is listed as “anti-uterotropic”.
Consider `CC/C(=C(\c1ccc(O)cc1)c1ccc(OCCN(C)C)cc1)c1ccccc1` [hydroxytamixofen], for which the “binding of estrogen receptor complex to estrogen responsive elements (in words)” value in series [4] is given as “bind in vitro to DNA binding domains called estrogen responsive elements”.
As to `O=C(c1ccc(OCCN2CCCCC2)cc1)c1c(-c2ccc(O)cc2)sc2cc(O)ccc12` [raloxifene], the “ED50 (in words)” value in [1] (MG63 cells) is reported as “nanomolar concentrations”.
Regarding `CC/C(=C(\c1ccccc1)c1ccc(OCCN(C)C)cc1)c1ccccc1` [tamoxifen], in series [5], the “TGFβ secretion (in words)” value is recorded as “induce human fetal fibroblasts to secrete TGFβ”. The “bone density (in words)” value in series [6] is “appear to be restricted to the lumbar spine, with bone loss being reported in the radius in some breast cancer patients”; in series [6] (listed as Tamoxifen), “increase bone density in breast cancer patients”. In addition, the “serum cholesterol (in words)” value in [6] (healthy women and women with breast cancer) is on record as “reduce the growth the serum cholesterol”. The “growth of breast tumors (in words)” value in [6] (human, in vivo) is on record as “reduce the growth of breast tumors”. Besides, in series [6] (human, in vivo), the “serum concentration of LDLs (in words)” value is given as “reduce serum concentration of LDLs”. In [6] (post-menopausal women), the “weight gain (in words)” value is on record as “contribute to weight gain”. In addition, the figures for the fold induction at 0.1 µM in series [7] (setting [17]), in [8] (setting [17]) and in series [9] (setting [17]) were 1.1, 2.6 and 2.6, respectively. Further, the “Act. (relative CAT activity)” value in [7] (TGFβ-1 promoter, 10 μl of 10^-4 M in 10 ml medium, 24 h, control […]) is given as 6.9; in series [8] (TGFβ-3 promoter, 10 μl of 10^-4 M in 10 ml medium, 24 h, control 0.7), 1.9; in series [9] (TGFβ-2 promoter, 10 μl of 10^-4 M in 10 ml medium, 24 h, control 0.8), 2.0. In addition, the “induction of extracellular TGFβ-1 (in words)” value in [10] is recorded as “correlated with induction of extracellular TGFβ-1”. The CAT activity in series [1] (10^-5 M) is on record as 13.5; in series [1] (10^-6 M), 2.9; in series [1] (10^-7 M), 0.98; in series [1] (10^-8 M) it was 1.2; in series [1] (10^-9 M), 0.91. Further, the “TGFβ-3 promoter activation (in words)” value in series [1] (MG63 cells) is “activates the TGFβ-3 promoter only at high levels (i.e., greater than micromolar)”. Moreover, the “TGFβ-2 mRNA expression (in words)” value in series [11] was “did not exhibit the same effect”.
Take `CN(C)CCOc1ccc(/C(=C(/CCCl)c2ccccc2)c2ccccc2)cc1` [toremifene]: in series [5], the “TGFβ secretion (in words)” value is reported as “induce human fetal fibroblasts to secrete TGFβ”.
For TGFβ, in series [12], the “cell growth, biosynthesis and chemotaxis (in words)” value is “inhibits the growth of mesenchymal cells and epithelial cells; also recorded: induces biosynthesis of proteoglycans, fibronectins and plasminogen activator; also recorded: chemotactic for fibroblasts, macrophages and smooth muscle cells”. Also, in series [13], the “bone formation / osteoclast effects (in words)” value was “stimulate osteoblastic bone formation and to inhibit osteoclast formation and osteoclast activities”. In addition, in series [14], the “cell division (in words)” value is “repressed division”. Also, the “mitogenic effect (in words)” value in series [15] was “mitogenic”.
Regarding “TGFβ-3: isoform of transforming growth factor β”, the “mitogenesis, collagen synthesis and alkaline phosphatase activity (in words)” value in [16] was “three to five fold higher rate than TGFβ-1”.
For “p-hydroxyphenyl3-(-hydroxyphenyl)benzo[B]thien-2-yl ketone [LY98005]”, the reporter gene expression in series [2] (10^-5 M) is 0.5; in series [2] (10^-6 M), 0.4; in series [2] (10^-7 M), 0.5; in series [2] (10^-8 M), 0.5; in [2] (10^-9 M), 0.4. Besides, the “induction of reporter gene expression (in words)” value in series [2] is listed as “no induction”. Moreover, the “in vivo uterotropic activity (in words)” value in [3] is “inert in vivo”.
